These results are taken from US6248739A, “Quinolinecarboxamides as antiviral agents” (Pharmacia & Upjohn Company, priority 1999, dated 2001).

SMILES strings stand for the structures. Read-outs that look alike come from different tables or passages of the source.

The target in assay [1] is T1, HCMV polymerase (Human cytomegalovirus, UniProt P08546).
T1 construct: made in house; host or cells: recombinant baculovirus-infected SF-9 insect cells
The experiment in a line: biochemical. Put shortly:
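Scintillation proximity assay with baculovirus/SF-9-expressed HCMV polymerase, 90 nM ³H-dTTP and 6 nM biotinylated poly(dA)-oligo(dT) in HEPES pH 7.5/KCl/MgCl2/BSA, ±2 mM CHAPS, 25 or 37 °C, 30 min for HCMV. Modified version: compounds diluted in 100% DMSO, 4.5 mM DTT added. IC50 from linear regression.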

For assay [2], the target named is HSV polymerase (Human herpesvirus 1, UniProt P04293). The experiment in a line: HSV polymerase assay (Table 1). It is filed as biochemical.
Chain of HSV polymerase (P04293 whole entry): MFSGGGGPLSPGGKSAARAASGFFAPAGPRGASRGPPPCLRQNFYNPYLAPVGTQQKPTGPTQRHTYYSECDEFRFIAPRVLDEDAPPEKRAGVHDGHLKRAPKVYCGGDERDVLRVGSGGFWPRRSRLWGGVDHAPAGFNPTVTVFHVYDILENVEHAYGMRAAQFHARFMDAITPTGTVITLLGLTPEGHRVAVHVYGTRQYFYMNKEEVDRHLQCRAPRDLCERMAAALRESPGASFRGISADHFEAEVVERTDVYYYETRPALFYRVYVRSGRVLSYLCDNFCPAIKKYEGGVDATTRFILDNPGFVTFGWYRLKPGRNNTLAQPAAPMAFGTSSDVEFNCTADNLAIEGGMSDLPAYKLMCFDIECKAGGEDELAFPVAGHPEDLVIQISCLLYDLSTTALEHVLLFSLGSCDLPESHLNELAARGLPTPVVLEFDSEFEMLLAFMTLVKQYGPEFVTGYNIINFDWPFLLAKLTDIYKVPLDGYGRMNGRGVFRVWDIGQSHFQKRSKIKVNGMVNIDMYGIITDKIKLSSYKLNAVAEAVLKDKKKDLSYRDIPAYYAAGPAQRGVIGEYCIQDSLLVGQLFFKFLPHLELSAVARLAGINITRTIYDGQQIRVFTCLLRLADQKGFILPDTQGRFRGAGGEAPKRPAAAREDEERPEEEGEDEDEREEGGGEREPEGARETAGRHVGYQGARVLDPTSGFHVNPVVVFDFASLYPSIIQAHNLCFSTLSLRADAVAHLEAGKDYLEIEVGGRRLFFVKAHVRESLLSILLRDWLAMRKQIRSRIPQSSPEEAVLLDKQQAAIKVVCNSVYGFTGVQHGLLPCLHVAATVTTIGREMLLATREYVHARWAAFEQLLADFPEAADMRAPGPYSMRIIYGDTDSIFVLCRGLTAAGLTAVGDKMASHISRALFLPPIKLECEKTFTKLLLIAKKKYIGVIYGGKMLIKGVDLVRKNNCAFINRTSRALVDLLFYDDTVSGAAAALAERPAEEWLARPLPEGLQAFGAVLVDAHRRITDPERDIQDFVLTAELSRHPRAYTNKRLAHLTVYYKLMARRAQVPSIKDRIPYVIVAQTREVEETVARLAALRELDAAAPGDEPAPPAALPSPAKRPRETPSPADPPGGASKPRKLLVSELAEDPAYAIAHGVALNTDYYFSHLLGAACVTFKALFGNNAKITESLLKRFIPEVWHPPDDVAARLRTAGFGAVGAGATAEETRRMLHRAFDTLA
Assay [3] addresses VZV polymerase (Varicella-zoster virus, UniProt P09252). In words: VZV polymerase assay (Table 1). It is filed as biochemical.
Setting [4] is: HCMV polymerase, SPA, modified assay: compounds in 100% DMSO, 4.5 mM DTT.

Chain of VZV polymerase (P09252 whole entry): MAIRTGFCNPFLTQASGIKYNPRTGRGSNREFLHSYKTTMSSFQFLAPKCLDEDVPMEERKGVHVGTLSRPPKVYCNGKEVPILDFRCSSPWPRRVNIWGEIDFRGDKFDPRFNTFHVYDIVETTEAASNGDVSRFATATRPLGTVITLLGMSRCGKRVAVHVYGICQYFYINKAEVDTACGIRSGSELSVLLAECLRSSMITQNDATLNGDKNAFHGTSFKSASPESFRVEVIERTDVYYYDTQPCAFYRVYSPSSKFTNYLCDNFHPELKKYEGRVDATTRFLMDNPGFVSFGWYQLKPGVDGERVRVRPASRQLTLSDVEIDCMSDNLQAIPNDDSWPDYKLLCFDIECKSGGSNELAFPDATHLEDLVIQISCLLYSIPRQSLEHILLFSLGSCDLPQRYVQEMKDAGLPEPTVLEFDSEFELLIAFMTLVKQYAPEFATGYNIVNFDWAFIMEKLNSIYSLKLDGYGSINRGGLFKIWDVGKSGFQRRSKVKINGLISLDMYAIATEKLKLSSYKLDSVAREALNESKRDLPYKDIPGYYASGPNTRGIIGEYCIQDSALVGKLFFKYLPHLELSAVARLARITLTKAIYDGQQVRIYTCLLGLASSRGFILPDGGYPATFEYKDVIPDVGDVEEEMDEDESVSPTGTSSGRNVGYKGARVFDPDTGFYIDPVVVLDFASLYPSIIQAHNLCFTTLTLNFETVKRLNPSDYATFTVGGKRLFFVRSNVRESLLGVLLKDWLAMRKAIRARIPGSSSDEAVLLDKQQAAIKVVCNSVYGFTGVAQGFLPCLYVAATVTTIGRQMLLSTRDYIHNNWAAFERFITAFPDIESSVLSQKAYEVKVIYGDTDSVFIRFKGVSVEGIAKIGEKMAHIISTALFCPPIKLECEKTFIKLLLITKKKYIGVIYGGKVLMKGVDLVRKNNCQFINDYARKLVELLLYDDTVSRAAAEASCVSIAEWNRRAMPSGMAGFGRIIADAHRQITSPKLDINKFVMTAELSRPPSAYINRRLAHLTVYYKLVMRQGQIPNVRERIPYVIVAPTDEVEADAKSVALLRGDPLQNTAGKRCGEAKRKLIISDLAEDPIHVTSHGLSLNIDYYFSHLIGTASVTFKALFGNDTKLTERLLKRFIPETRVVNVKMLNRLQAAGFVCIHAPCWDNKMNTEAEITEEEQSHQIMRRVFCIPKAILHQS
T1 sequence (P08546 whole entry): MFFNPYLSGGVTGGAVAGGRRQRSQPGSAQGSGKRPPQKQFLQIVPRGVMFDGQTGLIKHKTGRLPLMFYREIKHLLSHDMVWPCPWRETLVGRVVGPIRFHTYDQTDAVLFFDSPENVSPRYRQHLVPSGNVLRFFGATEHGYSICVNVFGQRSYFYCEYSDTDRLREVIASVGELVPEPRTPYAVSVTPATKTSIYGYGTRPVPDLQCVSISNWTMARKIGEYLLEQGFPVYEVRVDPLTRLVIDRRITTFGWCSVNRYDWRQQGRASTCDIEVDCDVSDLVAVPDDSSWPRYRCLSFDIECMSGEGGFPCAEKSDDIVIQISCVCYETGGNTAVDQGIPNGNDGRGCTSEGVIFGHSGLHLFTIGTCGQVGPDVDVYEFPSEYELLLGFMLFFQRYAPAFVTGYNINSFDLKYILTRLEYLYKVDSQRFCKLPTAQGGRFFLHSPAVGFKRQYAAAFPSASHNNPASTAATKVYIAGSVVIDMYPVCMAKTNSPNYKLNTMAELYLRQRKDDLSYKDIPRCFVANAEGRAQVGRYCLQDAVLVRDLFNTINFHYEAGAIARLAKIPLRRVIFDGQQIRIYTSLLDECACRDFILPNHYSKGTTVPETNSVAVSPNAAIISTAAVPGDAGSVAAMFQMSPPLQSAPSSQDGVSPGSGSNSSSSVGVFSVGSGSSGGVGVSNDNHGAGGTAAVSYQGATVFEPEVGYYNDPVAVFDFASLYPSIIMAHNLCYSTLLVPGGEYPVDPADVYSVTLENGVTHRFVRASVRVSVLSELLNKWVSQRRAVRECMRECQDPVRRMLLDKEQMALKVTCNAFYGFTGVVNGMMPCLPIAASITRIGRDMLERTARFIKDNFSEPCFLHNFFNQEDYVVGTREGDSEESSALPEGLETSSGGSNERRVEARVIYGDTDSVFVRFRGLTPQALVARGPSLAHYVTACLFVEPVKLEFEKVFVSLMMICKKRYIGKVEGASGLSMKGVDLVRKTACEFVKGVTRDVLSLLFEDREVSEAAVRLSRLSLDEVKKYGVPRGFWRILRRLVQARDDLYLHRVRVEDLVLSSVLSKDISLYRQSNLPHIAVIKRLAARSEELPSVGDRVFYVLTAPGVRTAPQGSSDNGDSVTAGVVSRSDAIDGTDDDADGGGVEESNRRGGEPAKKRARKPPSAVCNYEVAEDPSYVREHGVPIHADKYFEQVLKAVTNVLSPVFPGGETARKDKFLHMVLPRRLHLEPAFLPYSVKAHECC

One may read the IC50 as the concentration that inhibits the measured activity by half. A lower IC50 goes with higher potency. With `Cn1cc(C(=O)NCc2ccc(Cl)cc2)c(=O)c2cc(CCCO)cc(OCCO)c21` [Example 4], the results for the concentration for half-maximal inhibition (IC50) in assay [1] (setting [4]), in assay [2] and in assay [3] were 600 nM, 1000 nM and 1200 nM, respectively.
Consider `O=C(NCc1ccc(Cl)cc1)c1cn(CCN2CCOCC2)c2ccc(C=CCO)cc2c1=O` [Example 7, N-(4-Chlorobenzyl)-6-(3-hydroxy-1-propenyl)-1-[2-(4-morpholinyl)ethyl]-4-oxo-1,4-dihydro 3-quinolinecarboxamide], for which the half-maximal inhibitory concentration (IC50) in assay [1] came out at 1000 nM; in assay [2] it was 1100 nM; in assay [3], 770 nM.
Regarding `CCN(CC)CCn1cc(C(=O)NCc2ccc(Cl)cc2)c(=O)c2cc(C#CCO)ccc21` [Example 12, N-(4-Chlorobenzyl)-1-[2-(diethylamino)ethyl]-6-(3-hydroxy-1-propynyl)-4-oxo-1,4-dihydro-3-quinolinecarboxamide], the IC50 in assay [1] (setting [4]) was 2000 nM; in assay [2], 3000 nM; in assay [3], 1900 nM.
On to `O=C(NCc1ccc(Cl)cc1)c1cn(CCN2CCCCC2)c2ccc(C#CCO)cc2c1=O` [Example 14, N-(4-Chlorobenzyl)-6-(3-hydroxy-1-propynyl)-1-[2-(1-piperidinyl)ethyl]-4-oxo-1,4-dihydro-3-quinolinecarboxamide], for which the IC50 in assay [1] worked out at 1300 nM; in assay [2] it was 1200 nM; in assay [3], 1100 nM.
Take `CC(C)N(CCn1cc(C(=O)NCc2ccc(Cl)cc2)c(=O)c2cc(C#CCO)ccc21)C(C)C` [Example 17, N-(4-Chlorobenzyl)-1-[2-(diisopropylamino)ethyl]-6-(3-hydroxy-1-propynyl)-4-oxo-1,4-dihydro-3-quinolinecarboxamide]: the IC50 in assay [1] (setting [4]) came to 800 nM; in assay [2], 2000 nM; in assay [3], 1100 nM.
In the case of `O=C(NCc1ccc(Cl)cc1)c1cn(C2CC2)c2ccc(C#CCO)cc2c1=O` [Example 25, N-(4-Chlorobenzyl)-1-cyclopropyl-6-(3-hydroxy-1-propynyl)-4-oxo-1,4-dihydro-3-quinolinecarboxamide], the 50% inhibitory concentration (IC50) in assay [1] (setting [4]) stood at 1600 nM; in assay [2], 1600 nM; in assay [3], 1500 nM.
As for `O=C(NCc1ccc(Cl)cc1)c1cn(C2CC2)c2ccc(CCCO)cc2c1=O` [Example 26, N-(4-Chlorobenzyl)-1-cyclopropyl-6-(3-hydroxypropyl)-4-oxo-1,4-dihydro-3-quinolinecarboxamide], the half-inhibitory concentration (IC50) is 530 nM in assay [1] (setting [4]), 780 nM in assay [2] and 490 nM in assay [3].
As to `Cn1cc(C(=O)NCc2ccc(Cl)cc2)c(=O)c2cc(C#CCO)ccc21` [Example 31, N-(4-Chlorobenzyl)-6-(3-hydroxy-1-propynyl)-1-methyl-4-oxo-1,4-dihydro-3-quinolinecarboxamide], the concentration for half-maximal inhibition (IC50) turned out to be 1100 nM in assay [1] (setting [4]), 1300 nM in assay [2] and 1000 nM in assay [3].
For the molecule `O=C(NCc1ccc(Cl)cc1)c1cn(CCOCCO)c2ccc(C#CCO)cc2c1=O` [Example 55, N-(4-Chlorobenzyl)-1-[2-(2-hydroxyethoxy)ethyl]-6-(3-hydroxy-1-propynyl)-4-oxo-1,4-dihydro-3-quinolinecarboxamide], the figures for the IC50 in assay [1] (setting [4]), in assay [2] and in assay [3] were 2300 nM, 2400 nM and 1400 nM, respectively.
Turning to `CSCCCn1cc(C(=O)NCc2ccc(Cl)cc2)c(=O)c2cc(CN3CCOCC3)ccc21` [Example 61, N-(4-Chlorobenzyl)-1-[3-(methylsulfanyl)propyl]-6-(4-morpholinylmethyl)-4-oxo-1,4-dihydro-3-quinolinecarboxamide], the results for the IC50 in assay [1] (setting [4]), in assay [2] and in assay [3] were 1100 nM, 900 nM and 500 nM, respectively.
As to `O=C(NCc1ccc(Cl)cc1)c1cn(CC#CCO)c2ccc(CN3CCOCC3)cc2c1=O` [Example 62, N-(4-Chlorobenzyl)-1-(4-hydroxy-2-butynyl)-6-(4-morpholinylmethyl)-4-oxo-1,4-dihydro-3-quinolinecarboxamide], the concentration for half-maximal inhibition (IC50) was found to be 1300 nM in assay [1] (setting [4]), 1100 nM in assay [2] and 610 nM in assay [3].
Take `C[S+]([O-])CCCn1cc(C(=O)NCc2ccc(Cl)cc2)c(=O)c2cc(CN3CCOCC3)ccc21` (stereo not drawn) [Example 65, N-(4-Chlorobenzyl)-1-[3-(methylsulfinyl)propyl]-6-(4-morpholinylmethyl)-4-oxo-1,4-dihydro-3-quinolinecarboxamide]: the half-maximal inhibitory concentration (IC50) in assay [1] (setting [4]) is 900 nM; in assay [2], 1000 nM; in assay [3], 630 nM.
`O=C(NCc1ccc(Cl)cc1)c1cn(C2CCOCC2)c2ccc(CN3CCOCC3)cc2c1=O` [Example 108, N-(4-Chlorobenzyl)-6-(4-morpholinylmethyl)-4-oxo-1-tetrahydro-2H-pyran-4-yl-1,4-dihydro-3-quinolinecarboxamide] registered an IC50 in assay [1] (setting [4]) of 820 nM.
Turning to `CN1CCC(n2cc(C(=O)NCc3ccc(Cl)cc3)c(=O)c3cc(CN4CCOCC4)ccc32)CC1` [Example 109, N-(4-Chlorobenzyl)-1-(1-methyl-4-piperidinyl)-6-(4-morpholinylmethyl)-4-oxo-1,4-dihydro-3-quinolinecarboxamide], inhibition in assay [1] (setting [4]) was half-maximal at 480 nM (IC50).
The molecule `O=C(NCc1ccc(Cl)cc1)c1cn(C2CCNCC2)c2ccc(CN3CCOCC3)cc2c1=O` [Example 110, N-(4-Chlorobenzyl)-6-(4-morpholinylmethyl)-4-oxo-1-(4-piperidinyl)-1,4-dihydro-3-quinolinecarboxamide] registered an IC50 in assay [1] (setting [4]) of 670 nM.
On the same count and under the same terms, as for `O=C(NCc1ccc(Cl)cc1)c1cn(C2CCS(=O)(=O)CC2)c2ccc(CN3CCOCC3)cc2c1=O` [Example 111, N-(4-Chlorobenzyl)-1-(1,1-dioxohexahydro-thiopyran-4-yl)-6-(4-morpholinylmethyl)-4-oxo-1,4-dihydro-3-quinolinecarboxamide], the figure is 730 nM.
`O=C(NCc1ccc(Cl)cc1)c1cn(N2CCOCC2)c2ccc(CN3CCOCC3)cc2c1=O` [Example 112, N-(4-Chlorobenzyl)-1-(4-morpholinyl)-6-(4-morpholinylmethyl)-4-oxo-1,4-dihydro-3-quinolinecarboxamide]: the IC50 in assay [1] (setting [4]) worked out at 420 nM.
Same read-out and setting: as for `CN1CCN(n2cc(C(=O)NCc3ccc(Cl)cc3)c(=O)c3cc(CN4CCOCC4)ccc32)CC1` [Example 113, N-(4Chlorobenzyl)-1-(4methyl-1-piperazinyl)-6-(4-morpholinylmethyl)-4-oxo-1,4-dihydro-3-quinolinecarboxamide], the figure is 640 nM.
`O=C(NCc1ccc(Cl)cc1)c1cn(N2CCCCC2)c2ccc(CN3CCOCC3)cc2c1=O` [Example 114, N-(4-Chlorobenzyl)-6-(4-morpholinylmethyl)-4-oxo-1-(1-piperidinyl)-1,4-dihydro-3-quinolinecarboxamide] gave a concentration for half-maximal inhibition (IC50) in assay [1] (setting [4]) of 880 nM.
`O=C(NCc1ccc(Cl)cc1)c1cn(N2CCCC2)c2ccc(CN3CCOCC3)cc2c1=O` [Example 115, N-(4-Chlorobenzyl)-6-(4-morpholinylmethyl)-4-oxo-1-(1-pyrrolidinyl)-1,4-dihydro-3-quinolinecarboxamide]: in assay [1] (setting [4]), the half-maximal inhibitory concentration (IC50) was found to be 620 nM.
Take `COC[C@H]1CCCN1n1cc(C(=O)NCc2ccc(Cl)cc2)c(=O)c2cc(CN3CCOCC3)ccc21` [Example 116, N-(4-Chlorobenzyl)-1-[(2R)-2-(methoxymethyl)pyrrolidinyl]-6-(4-morpholinylmethyl)-4-oxo-1,4-dihydro-3-quinolinecarboxamide]: the IC50 in assay [1] (setting [4]) is 14000 nM.
Take `CN(C)n1cc(C(=O)NCc2ccc(Cl)cc2)c(=O)c2cc(CN3CCOCC3)ccc21` [Example 117, N-(4-Chlorobenzyl)-1-(dimethylamino)-6-(4-morpholinylmethyl)-4-oxo-1,4-dihydro-3-quinolinecarboxamide]: half-maximal inhibition in assay [1] (setting [4]) (IC50) required 1500 nM.
For the molecule `Nn1cc(C(=O)NCc2ccc(Cl)cc2)c(=O)c2cc(C#CCO)ccc21` [Example 118, 1-Amino-N-(4-chlorobenzyl)-6(3-hydroxy-1-propynyl)-4-oxo-1,4-dihydro-3-quinolinecarboxamide], inhibition in assay [1] (setting [4]) was half-maximal at 1100 nM (IC50).
In turn, `Nn1cc(C(=O)NCc2ccc(Cl)cc2)c(=O)c2cc(CCCO)ccc21` [Example 119, 1-Amino-N-(4-chlorobenzyl)-6-(3-hydroxypropyl)-4-oxo-1,4-dihydro-3-quinolinecarboxamide] showed a half-maximal inhibitory concentration (IC50) in assay [1] (setting [4]) of 500 nM.
`CN(C)n1cc(C(=O)NCc2ccc(Cl)cc2)c(=O)c2cc(C#CCO)ccc21` [Example 120, N-(4-Chlorobenzyl)-1-(dimethylamino)-6-(3-hydroxy-1-propynyl)-4-oxo-1,4-dihydro-3-quinolinecarboxamide] displayed an IC50 in assay [1] (setting [4]) of 2500 nM.
As for `CN(C)n1cc(C(=O)NCc2ccc(Cl)cc2)c(=O)c2ccccc21` [Example 121, N-(4-Chlorobenzyl)-1-(dimethylamino)-4-oxo-1,4-dihydro-3-quinolinecarboxamide], in assay [1] (setting [4]), the IC50 came to 3900 nM.
With `C=CCOn1cc(C(=O)NCc2ccc(Cl)cc2)c(=O)c2ccccc21` [Example 122, 1-(Allyloxy)-N-(4-chlorobenzyl)-4-oxo-1,4-dihydro-3-quinolinecarboxamide], the IC50 in assay [1] (setting [4]) is 2800 nM.
In assay [1] (setting [4]), `COn1cc(C(=O)NCc2ccc(Cl)cc2)c(=O)c2ccccc21` [Example 123, N-(4-Chlorobenzyl)-1-methoxy-4-oxo-1,4-dihydro-3-quinolinecarboxamide] had a concentration for half-maximal inhibition (IC50) of 8200 nM.
`O=C(NCc1ccc(Br)cc1)c1cn(N2CCOCC2)c2ccc(CN3CCOCC3)cc2c1=O` [Example 124, N-(4-Bromobenzy)-1-(4-morpholinyl)-6-(4-morpholinylmethyl)-4-oxo-1,4-dihydro-3-quinolinecarboxamide]: the IC50 in assay [1] (setting [4]) came to 1200 nM.
In assay [1] (setting [4]), `O=C(NCc1ccc(F)cc1)c1cn(N2CCOCC2)c2ccc(CN3CCOCC3)cc2c1=O` [Example 125, N-(4-Fluorobenzyl)-1-(4-morpholinyl)-6-(4-morpholinylmethyl)-4-oxo-1,4-dihydro-3-quinolinecarboxamide] displayed a 50% inhibitory concentration (IC50) of 1100 nM.
